Reference: patent US20100197585A1, “USE OF A RGD-PEPTIDE AND/OR PARATHYROID HORMONE (1-34) AS ANTI-HIV AGENT” (priority 2007, published 2010)
Where no end group is shown, it is not given here.

Key:
HIV-1IIIB = assay: HIV-1 antiviral assay (cytopathic effect) in CEM-SS cells; settings: for antiviral activity of positive control compounds (HIV-1): CEM-SS cells; for reduction of the cytopathic effect (CPE) in HIV-1 infected CEM-SS cells: 10 micrograms per ml, HIV-1IIIB, 6 days post-infection, MTS
HCMV strain AD169 = assay: HCMV plaque formation assay in MRC-5 cells; settings: for inhibition of HCMV plaque formation as compared to the virus control: 10 micrograms per ml, 7-10 days
murine spleen cells = assay: Th1/Th2 cytokine profiling assay; assay type: cell-based, Balb/c mice; settings: 10 micrograms per ml; Ovalbumin restimulation; 72 hours
Human A549 cells = assay: Apoptosis prevention assay (C2 ceramide, Annexin-5); assay type: cell-based; settings: 10 micrograms per ml, 30 min pretreatment
[1] = tested on: Primary Human endothelial cells (HUVEC); assay: Endothelial cell migration assay; assay type: cell-based; settings: 10 micrograms per ml, 22 hours
HUVEC = assay: Endothelial tube formation assay; assay type: cell-based, human; settings: 10 micrograms per ml, 20 hours
Streptococcus pneumoniae = Streptococcus pneumoniae assay; settings: 10 micrograms per ml; 5x10^5 CFU/mL
[2] = tested on: hepatitis B virus (HBV) ayw strain; assay: HBV experimental assay system (secreted HBV DNA, TaqMan PCR); assay type: cell-based; settings: 10 micrograms per ml; HepG2-2.2.15; six days; HBV DNA by TaqMan PCR
Description: HepG2-2.2.15 is a stable cell line containing the hepatitis B virus (HBV) ayw strain genome (ATCC Cat. No. CRL-11997). Antiviral compounds blocking any late step of viral replication such as transcription, translation, pregenome encapsidation, reverse transcription, particle assembly and release can be identified and characterized using this cell line. In this assay, an active compound will reduce the production of secreted HBV from cells, measured by utilizing real time quantitative PCR (TaqMan) assay to directly and accurately measure HBV DNA copies.
HepG2-2.2.15 cells were plated in 96-well microtiter plates. After 16-24 hours the confluent monolayer of HepG2-2.2.15 cells was washed and the medium was replaced with complete medium containing test peptides—10 micrograms per ml—in duplicate. […] Six days following the initial administration of the peptides, the cell culture supernatants was collected, treated with pronase and DNAse and then used in a real-time quantitative TaqMan PCR assay. The PCR-amplified HBV DNA was detected in real-time by monitoring increases in fluorescence signals that result from the exonucleolytic degradation of a quenched fluorescence probe molecule that hybridizes to the amplified HBV DNA. […] Antiviral activity was calculated from the reduction in HBV DNA levels (% virus control). […]

In the case of Cc1cn([C@H]2C[C@H](N=[N+]=[N-])[C@@H](CO)O2)c(=O)[nH]c1=O [AZT, zidovudine, reference compound], the “antiviral activity of positive control compounds (HIV-1)” value (HIV-1IIIB) was “expected levels of antiviral activity”.
In the case of Nc1nc(O)c2ncn(COC(CO)CO)c2n1 [Ganciclovir, reference compound], the “antiviral activity of positive control compound (HCMV)” value (HCMV strain AD169; positive control) was “expected levels of antiviral activity”.
CC[C@H](C)[C@H](NC(=O)[C@H](CCC(=O)O)NC(=O)[C@H](CO)NC(=O)[C@@H](NC(=O)[C@@H](N)CO)C(C)C)C(=O)N[C@@H](CCC(N)=O)C(=O)N[C@@H](CC(C)C)C(=O)N[C@@H](CCSC)C(=O)N[C@@H](Cc1cnc[nH]1)C(=O)N[C@@H](CC(N)=O)C(=O)N[C@@H](CC(C)C)C(=O)NCC(=O)N[C@@H](CCCCN)C(=O)N[C@@H](Cc1cnc[nH]1)C(=O)N[C@@H](CC(C)C)C(=O)N[C@@H](CC(N)=O)C(=O)N[C@@H](CO)C(=O)N[C@@H](CCSC)C(=O)N[C@@H](CCC(=O)O)C(=O)N[C@@H](CCCN=C(N)N)C(=O)N[C@H](C(=O)N[C@@H](CCC(=O)O)C(=O)N[C@@H](Cc1c[nH]c2ccccc12)C(=O)N[C@@H](CC(C)C)C(=O)N[C@@H](CCCN=C(N)N)C(=O)N[C@@H](CCCCN)C(=O)N[C@@H](CCCCN)C(=O)N[C@@H](CC(C)C)C(=O)N[C@@H](CCC(N)=O)C(=O)N[C@@H](CC(=O)O)C(=O)N[C@H](C(=O)N[C@@H](Cc1cnc[nH]1)C(=O)N[C@@H](CC(N)=O)C(=O)N[C@@H](Cc1ccccc1)C(=O)O)C(C)C)C(C)C [Peptide 2] was tested, and the “inhibition of HCMV plaque formation as compared to the virus control” value (HCMV strain AD169) was “did not inhibit”, the “change of the production of IL-5 in murine spleen cells” value (murine spleen cells) was “did not significantly change” and the “decrease of the production of IFN-γ in murine spleen cells” value (murine spleen cells) was 31.4%. The “increase of the production of IL-2 in murine spleen cells” value (murine spleen cells) was 80.4%, the “increase of the production of IL-4 in murine spleen cells” value (murine spleen cells) was 35.2% and the “induction of the production of TNF-alpha in murine spleen cells” value (murine spleen cells) was “did not significantly change”. The “reduction of the ceramide-induced apoptosis on human lung cells” value (Human A549 cells) was 23.9%, the “inhibition of the migration of human endothelial cells” value [1] was “no effect” and the “inhibition of the tube formation of human endothelial cells” value (HUVEC) was 28%. The “inhibition of the growth of Streptococcus pneumoniae” value (Streptococcus pneumoniae) was “no effect”, the “inhibition of HBV replication as compared to the virus control infection” value [2] was 0% and the “reduction of the cytopathic effect (CPE) in HIV-1 infected CEM-SS cells” value (HIV-1IIIB) was 18.1%.
In the case of CC(C)(C)NC(=O)[C@@H]1CN(Cc2cccnc2)CCN1C[C@@H](O)C[C@@H](Cc1ccccc1)C(=O)N[C@H]1c2ccccc2C[C@H]1O [indinavir, reference compound], the “antiviral activity of positive control compounds (HIV-1)” value (HIV-1IIIB) was “expected levels of antiviral activity”.
In the case of “Gly-Arg-Gly-Asp-Asn-Pro-OH (GRGDNP-OH) [Peptide 1]”, the “inhibition of HCMV plaque formation as compared to the virus control” value (HCMV strain AD169) was “did not inhibit”, the “change of the production of IL-5 in murine spleen cells” value (murine spleen cells) was “did not significantly change” and the “decrease of the production of IFN-γ in murine spleen cells” value (murine spleen cells) was “did not significantly change”. The “increase of the production of IL-2 in murine spleen cells” value (murine spleen cells) was 58.8%, the “increase of the production of IL-4 in murine spleen cells” value (murine spleen cells) was 55.6% and the “induction of the production of TNF-alpha in murine spleen cells” value (murine spleen cells) was 23.7%. For the same compound, the “reduction of the ceramide-induced apoptosis on human lung cells” value (Human A549 cells) was “did not reduce”, the “inhibition of the tube formation of human endothelial cells” value (HUVEC) was “no effect” and the “inhibition of the growth of Streptococcus pneumoniae” value (Streptococcus pneumoniae) was 100%. The “inhibition of HBV replication as compared to the virus control infection” value [2] was 36.4% and the “reduction of the cytopathic effect (CPE) in HIV-1 infected CEM-SS cells” value (HIV-1IIIB) was 100%.
